Converted amounts (≈) assume the structure as drawn.
Legend:
Assay type in all cases: functional
A549 = experiment: Cytotoxic activity against human A549 cell line was measured after 72 hr using MTT assay; conditions: A549, 72 h, read-out: ED50 (the source's name)
MOLT-4 = experiment: Cytotoxic activity against human MOLT-4 cell line was measured after 72 hr using MTT assay; conditions: for EC50: Homo sapiens, MOLT-4, 72 h, read-out: ED50 (the source's name)
PA-1 = experiment: Cytotoxic activity against human PA-1 cell line was measured after 72 hr using MTT assay; conditions: for EC50: Homo sapiens, PA-1, 72 h, read-out: ED50 (the source's name)
L132 = experiment: Cytotoxic activity against human L132 cell line was measured after 72 hr using MTT assay; conditions: L132, 72 h, read-out: ED50 (the source's name)
U-937 = experiment: Cytotoxic activity against human U937 cell line was measured after 72 hr using MTT assay; conditions: for EC50: Homo sapiens, U-937, 72 h, read-out: ED50 (the source's name)
BRISTOL8 = experiment: Cytotoxic activity against human BRISTOL8 cell line was measured after 72 hr using MTT assay; conditions: for EC50: Homo sapiens, BRISTOL8, 72 h, read-out: ED50 (the source's name)
CCRF-CEM = experiment: Cytotoxic activity against human CEM.CM3 cell line was measured after 72 hr using MTT assay; conditions: for EC50: Homo sapiens, CCRF-CEM, 72 h, read-out: ED50 (the source's name)
DU-145 = experiment: Cytotoxic activity against human DU145 cell line was measured after 72 hr using MTT assay; conditions: for EC50: Homo sapiens, DU-145, 72 h, read-out: ED50 (the source's name)
Jurkat = experiment: Cytotoxic activity against human JurkatE6.1 cell line was measured after 72 h using MTT assay; conditions: for EC50: Homo sapiens, Jurkat, 72 h, read-out: ED50 (the source's name)

| Compound | EC50 (A549) [µg/mL] | EC50 (MOLT-4) [µg/mL] | EC50 (PA-1) [µg/mL] | EC50 (L132) [µg/mL] | EC50 (U-937) [µg/mL] | EC50 (BRISTOL8) [µg/mL] | EC50 (CCRF-CEM) [µg/mL] | EC50 (DU-145) [µg/mL] | EC50 (Jurkat) [µg/mL] | ED50 (MOLT-4) [µg/mL] | ED50 (PA-1) [µg/mL] | ED50 (U-937) [µg/mL] | ED50 (BRISTOL8) [µg/mL] | ED50 (CCRF-CEM) [µg/mL] | ED50 (DU-145) [µg/mL] | ED50 (Jurkat) [µg/mL] |
| --- | --- | --- | --- | --- | --- | --- | --- | --- | --- | --- | --- | --- | --- | --- | --- | --- |
| C=C(C)[C@@H]1CC[C@]2(C(=O)O)CC[C@]3(C)[C@H](CC[C@@H]4[C@@]5(C)CC[C@H](O)C(C)(C)[C@@H]5CC[C@]43C)[C@@H]12 [BETULINIC ACID] | > 10 | 1.23 (≈ 2.69 µM) | > 10 | 1.3 (≈ 2.85 µM) | 0.69 (≈ 1.51 µM) | 0.84 (≈ 1.84 µM) | 0.98 (≈ 2.15 µM) | 1.13 (≈ 2.47 µM) | 0.65 (≈ 1.42 µM) | – | – | – | – | – | – | – |
| C=C(C)[C@@H]1CC[C@]2(C(=O)OCC(=O)OC)CC[C@]3(C)C(CCC4[C@@]5(C)CC[C@H](O)C(C)(C)C5CC[C@]43C)C12 (stereo in doubt; 4) | – | – | – | – | – | – | – | – | – | 2.9 (≈ 5.48 µM) | 3.1 (≈ 5.86 µM) | 5.4 (≈ 10.2 µM) | 7.4 (≈ 14 µM) | 5.9 (≈ 11.2 µM) | 1.9 (≈ 3.59 µM) | 3.1 (≈ 5.86 µM) |
| C=C(C)[C@@H]1CC[C@]2(C(=O)O)CC[C@]3(C)C(CCC4[C@@]5(C)CC/C(=N\Nc6ccccc6)C(C)(C)C5CC[C@]43C)C12 (stereo partly drawn) | > 10 | 3.4 (≈ 6.24 µM) | 5.3 (≈ 9.73 µM) | 4.3 (≈ 7.89 µM) | 2.4 (≈ 4.41 µM) | 3.4 (≈ 6.24 µM) | 3.1 (≈ 5.69 µM) | 2.4 (≈ 4.41 µM) | 2.6 (≈ 4.77 µM) | – | – | – | – | – | – | – |
| C=C(C)[C@@H]1CC[C@]2(C(=O)O)CC[C@]3(C)C(CCC4[C@@]5(C)CC[C@H](OC(C)=O)C(C)(C)C5CC[C@]43C)C12 (stereo partly drawn) | > 10 | 3.1 (≈ 6.22 µM) | 4.1 (≈ 8.22 µM) | > 10 | 1.6 (≈ 3.21 µM) | 4.8 (≈ 9.62 µM) | – | 2.6 (≈ 5.21 µM) | 1.8 (≈ 3.61 µM) | – | – | – | – | – | – | – |
| C=C(C)[C@@H]1CC[C@]2(C(=O)O)CC[C@]3(C)C(CCC4[C@@]5(C)CC[C@H](OC(=O)CC)C(C)(C)C5CC[C@]43C)C12 (stereo partly drawn) | > 10 | 3.3 (≈ 6.44 µM) | 3.7 (≈ 7.22 µM) | > 10 | 6.8 (≈ 13.3 µM) | 2.1 (≈ 4.1 µM) | 5.5 (≈ 10.7 µM) | 4.2 (≈ 8.19 µM) | 2.1 (≈ 4.1 µM) | – | – | – | – | – | – | – |
| CC(C)[C@@H]1CC[C@]2(C(=O)O)CC[C@]3(C)C(CCC4[C@@]5(C)CC/C(=N\Nc6ccccc6)C(C)(C)C5CC[C@]43C)C12 (stereo partly drawn) | > 10 | 1.4 (≈ 2.56 µM) | 0.4 (≈ 0.731 µM) | 7.4 (≈ 13.5 µM) | 2.2 (≈ 4.02 µM) | 3.7 (≈ 6.77 µM) | 2.9 (≈ 5.3 µM) | 0.6 (≈ 1.1 µM) | 6.3 (≈ 11.5 µM) | – | – | – | – | – | – | – |
| C=C(C)[C@@H]1CC[C@]2(C(=O)OCC(=O)O)CC[C@]3(C)C(CCC4[C@@]5(C)CC[C@H](O)C(C)(C)C5CC[C@]43C)C12 (stereo partly drawn) | > 10 | 3.1 (≈ 6.02 µM) | 1.3 (≈ 2.53 µM) | > 10 | > 10 | – | > 10 | > 10 | > 10 | – | – | – | – | – | – | – |
| C=C(C)[C@@H]1CC[C@]2(C(=O)O)CC[C@]3(C)C(CCC4[C@@]5(C)CC[C@H](OC(=O)C(C)(C)C)C(C)(C)C5CC[C@]43C)C12 (stereo partly drawn) | > 10 | 2.4 (≈ 4.44 µM) | 0.7 (≈ 1.29 µM) | > 10 | > 10 | > 10 | > 10 | 1 (≈ 1.85 µM) | > 10 | – | – | – | – | – | – | – |
| C=C(C)[C@@H]1CC[C@]2(C(=O)O)CC[C@]3(C)[C@H](CC[C@@H]4[C@@]5(C)CCC(=O)C(C)(C)[C@@H]5CC[C@]43C)[C@@H]12 [BETUNOLIC ACID] | > 10 | 1.2 (≈ 2.64 µM) | 1.2 (≈ 2.64 µM) | > 10 | 2.8 (≈ 6.16 µM) | 2.6 (≈ 5.72 µM) | 4.4 (≈ 9.68 µM) | 3.1 (≈ 6.82 µM) | 0.4 (≈ 0.88 µM) | – | – | – | – | – | – | – |
| COC(=O)COC(=O)[C@]12CC[C@@H](C(C)C)C1C1CCC3[C@@]4(C)CC[C@H](O)C(C)(C)C4CC[C@@]3(C)[C@]1(C)CC2 (stereo partly drawn) | > 10 | 2.8 (≈ 5.28 µM) | 0.5 (≈ 0.942 µM) | > 10 | > 10 | 3.4 (≈ 6.41 µM) | 2.5 (≈ 4.71 µM) | > 10 | 5.5 (≈ 10.4 µM) | – | – | – | – | – | – | – |
| C=C(C)[C@@H]1CC[C@]2(C(=O)OCC(=O)OC)CC[C@]3(C)C(CCC4[C@@]5(C)CCC(=N)C(C)(C)C5CC[C@]43C)C12 (stereo partly drawn) | > 10 | 1.7 (≈ 3.23 µM) | 6.5 (≈ 12.4 µM) | > 10 | 1.7 (≈ 3.23 µM) | 1.4 (≈ 2.66 µM) | 1.4 (≈ 2.66 µM) | 5.5 (≈ 10.5 µM) | 0.5 (≈ 0.951 µM) | – | – | – | – | – | – | – |
| CC(C)[C@@H]1CC[C@]2(C(=O)O)CC[C@]3(C)C(CCC4[C@@]5(C)CC[C@H](O)C(C)(C)C5CC[C@]43C)C12 (stereo partly drawn) [DIHYDROBETULINIC ACID] | 2.2 (≈ 4.8 µM) | 0.6 (≈ 1.31 µM) | 0.7 (≈ 1.53 µM) | 2.4 (≈ 5.23 µM) | 0.9 (≈ 1.96 µM) | 4.4 (≈ 9.59 µM) | 1.3 (≈ 2.83 µM) | 0.7 (≈ 1.53 µM) | 4.9 (≈ 10.7 µM) | – | – | – | – | – | – | – |
| CC(=O)O[C@H]1CC[C@@]2(C)C(CC[C@]3(C)C2CCC2C4[C@H](C(C)C)CC[C@]4(C(=O)O)CC[C@]23C)C1(C)C (stereo partly drawn) | 2.3 (≈ 4.59 µM) | 1.1 (≈ 2.2 µM) | 0.8 (≈ 1.6 µM) | 2.9 (≈ 5.79 µM) | 1.8 (≈ 3.59 µM) | 3.4 (≈ 6.79 µM) | 1 (≈ 2 µM) | 0.9 (≈ 1.8 µM) | 1.6 (≈ 3.2 µM) | – | – | – | – | – | – | – |
